Assay [1] concerns the target T1, human JMJD7 (Homo sapiens, UniProt P0C870).
T1 construct: human JMJD7 (residues 1–316) with an N‐terminal His6‐tag; His6 (N); made in house; host or cells: Escherichia coli Rosetta (DE3)
Description: LC-MS assay of JMJD7-catalyzed hydroxylation/oxidation of DRG1 peptides. It counts as biochemical. The following applies: for extent of hydroxylation by JMJD7 at higher 2OG concentration / degree of oxidation (+16 Da) of cysteine/methionine analog peptides by JMJD7: 2 μM JMJD7, 10 μM peptide; for extent of hydroxylation by JMJD7 at higher 2OG concentration: 20 μM 2OG, pH 7.5, 2 h incubation; for fate of the JMJD7 C3-hydroxylation product: 2 h; for extent of hydroxylation (+16 Da) by JMJD7: standard conditions: 2 μM JMJD7, 10 μM DRG1 peptide, room temperature. The procedure: Initial assays were carried out by incubation of purified recombinant (Markolovic et al., [2018]) human JMJD7 (2 μM) in the presence of a DRG1 derived peptide (10 μM), 2OG (10 μM), ferrous ammonium sulfate (FAS, 10 μM), and L‐ascorbate (LAA, 100 μM) in Tris buffer at pH 7.5 for 2 h at room temperature. Potential conversion to a hydroxylated product (+16 Da mass shift) was monitored by liquid‐chromatography‐mass‐spectrometry (LC–MS). […] The assay results also implied that DRG1‐Orn was hydroxylated, but to a lower extent (~21%) than DRG1‐Lys. […] The alcohol‐containing peptide hydroxynorleucine (DRG1‐HNle), was hydroxylated at relatively low levels (~24%), implying that H‐bonding interactions and positive charge of the N^ɛ‐amino group of lysine are important for efficient binding and catalysis, but that a neutral alcohol can still be accommodated at the active site (Figure 3f) (Markolovic et al., [2018]).
All reagents were procured from Sigma Aldrich. 2‐Oxoglutarate (2OG, 10 mM) and L‐ascorbic acid (LAA, 50 mM) solutions were prepared freshly by dissolving the solids in deionized water. Ferrous ammonium sulfate (FAS) solution was prepared freshly by dissolving FAS at 400 mM in 20 mM HCl with subsequent dilution to 1 mM using deionized water. JMJD7 assays using DRG1 (16–40) based peptides were performed with the following conditions: (i) 2 or 5 μM JMJD7, 10 μM DRG1 peptide, 100 μM LAA, 10 μM FAS, 10 μM 2OG in mM 50 Tris‐buffer (pH 7.5), (ii) 2 μM JMJD7, 10 μM DRG1 peptide, 100 μM LAA, 10 μM FAS, 20 μM 2OG in mM 50 Tris‐buffer (pH 7.5). Reactions were initiated by addition of enzyme to the cosubstrate/substrate solution in a final reaction volume of 50 μL with 2 h incubation at room temperature. A positive control reaction containing enzyme and a validated peptide substrate was included in all screening studies. After 2 h, reactions were stopped by addition of 5 μL of 10% (v/v) LC–MS grade formic acid (Fisher Scientific) and transferred to a 96 well plate (Agilent). Intact mass peptide analysis was performed by LC–MS using an Agilent 1290 infinity II LC system equipped with an Agilent 1290 multisampler and an Agilent 1290 high speed pump and connected to an Agilent 6550 accurate mass iFunnel quadrupole time of flight (Q‐TOF) mass spectrometer. The reaction mixture (4 μL) was injected and loaded onto a ZORBAX RRHD Eclipse Plus C18 column (Agilent). Solvent A consisted of LC–MS grade water containing 0.1% (v/v) formic acid and solvent B consisted of MeCN containing 0.1% (v/v) formic acid. Peptides were separated using a step wise gradient (0 min – 95% solvent A, 1.0 min – 80% solvent A, 3.0 min – 45% solvent A, 4.0 min – 45% solvent A, 5.0 min – 0% solvent A, 6.0 min – 0% solvent A, 7.0 min – 95% solvent A). This was followed by a 3 min elution with 95% solvent A to re‐equilibrate the column. Flow rates were 0.2 mL/min. The mass spectrometer was operated in the positive ion mode with a drying gas temperature (280°C), drying gas flow rate (13 L min^−1), nebulizer pressure (40 psig), sheath gas temperature (350°C), sheath gas flow rate (12 L min^−1), capillary voltage (4000 V), nozzle voltage (1000 V). Data were analyzed using Agilent MassHunter Qualitative Analysis (Version B.07.00) software.

The target in assay [2] is T1, human JMJD7. Briefly: SPE-MS time-course and steady-state kinetics of JMJD7-catalyzed hydroxylation. Format: biochemical. As to conditions: for k cat/K m / k cat / K m: SPE-MS, DRG1 peptide 0.1–5.0 μM, 2OG 20 μM, FAS 10 μM, LAA 100 μM, JMJD7 100 nM; for k cat: in min^-1; for K m: in µM (unit assumed). As to the method:
Having shown that introduction of γ‐thialysine and γ‐azalysine residues into DRG1 peptides generates substrates that are efficiently hydroxylated by JMJD7, giving nascent products that fragment to give formylglycine, we explored whether these two peptides could compete with the DRG1‐Lys substrate for JMJD7 catalysis. The reactions of DRG1‐Lys, DRG1‐CysNH2 and DRG1‐LysN (1.0 μM) by JMJD7 (50 nM) were investigated as a function of time using SPE‐MS assays.
To quantify the relative efficiencies of DRG1‐Lys and the substrate analog DRG1‐LysE, we carried out kinetics analyses using SPE‐MS assays as the levels of JMJD7‐catalyzed hydroxylation were sufficient for these two substrates.
JMJD7 turnover assays for kinetic studies were performed in 96‐well polypropylene assay plates with 1.0 mL total reaction volume using a series of concentrations of the DRG1 peptide (0.1–5.0 μM), 2OG (20 μM), FAS (10 μM), LAA (100 μM). Reactions were initiated by the addition of JMJD7 (100 nM). MS‐analyses were performed using a RapidFire RF 365 high‐throughput sampling robot (Agilent) attached to an iFunnel Agilent 6550 accurate mass quadrupole time‐of‐flight (Q‐TOF) mass spectrometer operated in the positive ionization mode. The RapidFire RF 365 high‐throughput sampling robot was programmed to aspirate samples from the reaction mixture at the indicated time intervals. Assay samples were loaded onto a C4 solid phase extraction (SPE) cartridge and peptides were eluted using given previous protocols (Tumber et al., [2023]). The % conversion of the hydroxylation reaction were calculated from the ion chromatogram data by integrating peak areas using RapidFire Integrator 4.3.0 software (Agilent).

Setting [3] is: 10 μM 2OG, 10 μM FAS, 100 μM LAA.
[4] abbreviates: standard conditions: 2 μM JMJD7, 10 μM peptide, 10 μM 2OG.
The mark [5] stands for this setting: 10 μM 2OG, 10 μM FAS, 100 μM LAA, Tris pH 7.5, 2 h.
Where [6] appears, read: 1.0 μM peptide, 50 nM JMJD7, SPE-MS time-course.

Square brackets hold non-standard residues; d marks the D form. Ends that are not written are not given here. Met(O) = CS(=O)CC[C@H](N)C(=O)O; SeMet = C[Se]CC[C@H](N)C(=O)O; Nle = CCCC[C@H](N)C(=O)O

T1 sequence (P0C870 whole entry, the tested form may be a part): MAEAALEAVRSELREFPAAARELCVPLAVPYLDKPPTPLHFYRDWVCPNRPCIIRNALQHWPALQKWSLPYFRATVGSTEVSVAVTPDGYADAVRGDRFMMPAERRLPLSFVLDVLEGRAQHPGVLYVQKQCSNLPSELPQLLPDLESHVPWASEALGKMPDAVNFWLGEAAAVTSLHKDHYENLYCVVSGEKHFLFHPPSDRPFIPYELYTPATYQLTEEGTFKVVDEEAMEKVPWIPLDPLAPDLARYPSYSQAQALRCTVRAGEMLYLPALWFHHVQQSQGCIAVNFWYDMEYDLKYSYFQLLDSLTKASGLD

Turning to “ARTQKNAhpATAHHLGLLKARLAKLRR [DRG1‐Ahp, 25-mer DRG1 (16–40) peptide with Ahp at position 22]”, the “extent of hydroxylation by JMJD7 at higher 2OG concentration” value (“extent of hydroxylation by JMJD7” for short) on human JMJD7 [1] (10 μM FAS, 100 μM LAA) is reported as “did not manifest evidence for hydroxylation”.

On to “ARTQKNCysMeATAHHLGLLKARLAKLRR [DRG1‐CysMe, 25-mer DRG1 (16–40) peptide with CysMe at position 22]”, for which the “degree of oxidation (+16 Da) of cysteine/methionine analog peptides by JMJD7” value at human JMJD7 [1] (setting [3]) was “oxidized relatively efficiently”.

As for “ARTQKNCysNHmeATAHHLGLLKARLAKLRR [DRG1‐CysNHMe, 25-mer DRG1 (16–40) peptide with γ-methylthialysine at position 22]”, the “possibly stable hemithioacetal product detected by MS” value at human JMJD7 [1] (standard conditions: 2 μM JMJD7, 10 μM peptide, 10 μM 2OG, 10 μM FAS, 100 μM LAA, Tris pH 7.5, 2 h) came to 12%. At human JMJD7 [1] (setting [4]), the “fate of the JMJD7 C3-hydroxylation product” value is “fragmentation to form DRG1‐formylglycine and its hydrated products”.

Regarding “ARTQKND-LysATAHHLGLLKARLAKLRR [DRG1‐D‐Lys, 25-mer DRG1 (16–40) peptide with epimeric D-lysine at position 22]”, the “extent of hydroxylation by JMJD7” value at human JMJD7 [1] (10 μM FAS, 100 μM LAA) is ~ 6%. Besides, the “extent of hydroxylation (+16 Da) by JMJD7” value (“extent … (+16 Da) by JMJD7” for short) on human JMJD7 [1] (setting [5]) is listed as “not hydroxylated within detection limits”.

For the substance “ARTQKNH[Nle]ATAHHLGLLKARLAKLRR [DRG1‐HNle, 25-mer DRG1 (16–40) peptide with hydroxynorleucine at position 22]”, on human JMJD7 [1] (10 μM FAS, 100 μM LAA), the “extent of hydroxylation by JMJD7” value is given as ~ 56%. In addition, at human JMJD7 [1] (setting [5]), the “extent … (+16 Da) by JMJD7” value is recorded as ~ 24%. Moreover, the “relative rate / turnover in the time-course” value (“relative rate / turnover” for short) on human JMJD7 [2] (setting [6]) was “turnover was low”.

On to “ARTQKNLysATAHHLGLLKARLAKLRR [DRG1‐Lys, 25-mer DRG1 fragment peptide (residues 16–40), C-terminal amide, Lys at position 22; JMJD7 substrate, reference compound]”, for which the “extent of hydroxylation by JMJD7” value on human JMJD7 [1] (10 μM FAS, 100 μM LAA) was ~ 98%. The “extent … (+16 Da) by JMJD7” value at human JMJD7 [1] (setting [5]) is listed as ~ 78%. In addition, the “hydroxylation within 9 min” value on human JMJD7 [2] (1.0 μM peptide, 50 nM JMJD7, SPE-MS time-course, 9 min) is reported as ~ 90%. Also, on human JMJD7 [2], the “k cat/K m” value came to 155000 M⁻¹ s⁻¹, the k cat is 13.0 ± 0.36 and the K m is on record as 1.4 ± 0.59. The “substrate inhibition of JMJD7” value on human JMJD7 [2] (increased substrate concentrations, 100 nM JMJD7, 20 μM 2OG, 10 μM FAS, 100 μM LAA, pH 7.5) was “substrate inhibition of JMJD7 was observed”.

For the substance “ARTQKNLysEATAHHLGLLKARLAKLRR [DRG1‐LysE, 25-mer DRG1 (16–40) peptide with (E)-dehydrolysine at position 22]”, on human JMJD7 [1] (setting [5]), the “extent … (+16 Da) by JMJD7” value is recorded as 90%. Further, at human JMJD7 [2], the “k cat/K m” value came out at 133000 M⁻¹ s⁻¹, the k cat turned out to be 24.7 ± 0.36 and the K m was 3.1 ± 0.81.

With “ARTQKNLysMeATAHHLGLLKARLAKLRR [DRG1‐LysMe, 25-mer DRG1 (16–40) peptide with LysMe at position 22]”, the “extent of hydroxylation by JMJD7” value at human JMJD7 [1] (10 μM FAS, 100 μM LAA) is listed as ~ 7%.

“ARTQKNLysNATAHHLGLLKARLAKLRR [DRG1‐LysN, 25-mer DRG1 (16–40) peptide with γ-azalysine at position 22]”: the “fate of the JMJD7 C3-hydroxylation product” value at human JMJD7 [1] (setting [4]) is “fragmentation to form DRG1‐formylglycine and its hydrated products”. Further, the “relative rate / turnover” value at human JMJD7 [2] (setting [6]) was “oxidized more slowly than DRG1‐CysNH2”.

Regarding ARTQKNMetATAHHLGLLKARLAKLRR [DRG1‐Met], the “degree of oxidation (+16 Da) of cysteine/methionine analog peptides by JMJD7” value at human JMJD7 [1] (setting [3]) is ~ 86%. Further, the “relative rate / turnover” value at human JMJD7 [2] (setting [6]) is recorded as “turnover appeared to be low”.

Turning to “ARTQKN[Met(O)]ATAHHLGLLKARLAKLRR [DRG1‐MetO]”, on human JMJD7 [1] (setting [3]), the “degree of oxidation (+16 Da) of cysteine/methionine analog peptides by JMJD7” value is given as “showed no evidence for oxidation”.

As for “ARTQKN[SeMet]ATAHHLGLLKARLAKLRR [DRG1‐SeMet, 25-mer DRG1 (16–40) peptide with SeMet at position 22]”, at human JMJD7 [1] (setting [3]), the “degree of oxidation (+16 Da) of cysteine/methionine analog peptides by JMJD7” value is listed as “showed no evidence for oxidation”.

With “ARTQKNhLysATAHHLGLLKARLAKLRR [DRG1‐hLys, 25-mer DRG1 (16–40) peptide with hLys at position 22]”, the “extent of hydroxylation by JMJD7” value on human JMJD7 [1] (10 μM FAS, 100 μM LAA) is recorded as ~ 5%. For the same substance, on human JMJD7 [1] (setting [5]), the “extent … (+16 Da) by JMJD7” value is listed as “did not undergo hydroxylation within detection limits”.

Consider “ARTQKNhMetATAHHLGLLKARLAKLRR [DRG1‐hMet, 25-mer DRG1 (16–40) peptide with homomethionine at position 22]”, for which, on human JMJD7 [1] (setting [3]), the “degree of oxidation (+16 Da) of cysteine/methionine analog peptides by JMJD7” value is recorded as ~ 89%.

As for “ARTQKNhSerATAHHLGLLKARLAKLRR [DRG1‐hSer, 25-mer DRG1 (16–40) peptide with hSer at position 22]”, at human JMJD7 [1] (setting [3]), the “degree of oxidation (+16 Da) of cysteine/methionine analog peptides by JMJD7” value is recorded as “did also not undergo oxidation”.

Regarding “ARTQKNmeOhSerATAHHLGLLKARLAKLRR [DRG1‐meOhSer, 25-mer DRG1 (16–40) peptide with meOhSer at position 22]”, on human JMJD7 [1] (setting [3]), the “degree of oxidation (+16 Da) of cysteine/methionine analog peptides by JMJD7” value was “showed no evidence for oxidation”.

As to “ARTQKNnArgATAHHLGLLKARLAKLRR [DRG1‐nArg, 25-mer DRG1 (16–40) peptide with nArg at position 22]”, on human JMJD7 [1] (10 μM FAS, 100 μM LAA), the “extent of hydroxylation by JMJD7” value is on record as “did not manifest evidence for hydroxylation”.

Values taken from paper PMC11400632, “Substrate selectivity and inhibition of the human lysyl hydroxylase JMJD7” (Protein Science : A Publication of the Protein Society, 2024).
